According to patent US20210188905A1, “COMBINING BETA-DIPEPTIDES AND AMINO ACIDS FOR OPTIMAL NUTRITIONAL SUPPLEMENTATION” (Cysal GmbH, priority 2018, published 2021):

Key:
[1] = Oral supplementation of healthy volunteers, levels in whole blood by UPLC-MSMS; assay type: in vivo, human
Protocol: β-Aspartyl-arginine was administered orally either alone or in combination with arginine, and in varying doses. Levels of dipeptide in blood are then monitored over time. The substance used for the experiments is a white powder of β-aspartyl-arginine. The purity is >99% and was determined by HPLC-analysis.
Experimental procedure: The volunteers were three healthy males (age 41 to 51 years, 173-187 cm height, 80-85 kg weight, BMI around 25 kg/m^2). […] The volunteers fasted throughout the experiment. Blood was collected from the fingertip using a lancet device and blotted onto sample cards and levels of dipeptide and amino acids were determined by UPLC-MSMS by an external service provider (Labor Blessing, Singen Germany).

[2] = oral consumption, human use data; cited from earlier work
Arginase (Bovine) = target: T1, Arginase (Bovine) (Bos taurus, UniProt Q2KJ64); experiment: Hydrolase susceptibility: arginase reaction, HPLC; assay type: in vitro ADME; conditions: 500 μg per ml, 100 U arginase, 37° C., pH 9.5, FIG. 5/6
T1 construct: purchased Alexis Bio/Sigma ALX-201-081-C020
T1 sequence (Q2KJ64 1-322): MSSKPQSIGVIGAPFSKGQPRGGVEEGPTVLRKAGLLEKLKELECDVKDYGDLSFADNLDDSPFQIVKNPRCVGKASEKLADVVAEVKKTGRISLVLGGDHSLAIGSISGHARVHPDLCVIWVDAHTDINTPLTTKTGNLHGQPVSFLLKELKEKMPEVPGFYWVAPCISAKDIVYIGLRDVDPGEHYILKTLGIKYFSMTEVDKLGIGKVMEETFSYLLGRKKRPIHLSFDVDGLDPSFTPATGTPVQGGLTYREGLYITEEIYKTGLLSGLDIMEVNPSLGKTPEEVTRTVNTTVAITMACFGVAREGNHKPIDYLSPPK
From the text: The release of free amino acids or modified dipeptide after treatment with these enzymes is monitored by HPLC.

[3] = target: T2, Clostripain (Cl. histolyticum) (Hathewaya histolytica, UniProt P09870); experiment: Hydrolase susceptibility: clostripain, HPLC; assay type: in vitro ADME; conditions: 500 μg dipeptide per ml, 10 U, 25° C., pH 7.4, 24 h, FIG. 7
T2 construct: purchased Sigma C0888-250UN
Protocol: (§1) Arginase catalyzes the final step of the urea cycle and converts L-arginine into L-ornithine und urea. The other tested enzymes (proteases) are able to cleave α-peptide bonds involving aspartate and/or arginine. The release of free amino acids or modified dipeptide after treatment with these enzymes is monitored by HPLC. The substance used for the experiments is a white powder of β-L-aspartyl-L-arginine. The purity is >99% and was determined by HPLC-analysis.

[4] = target: T3, Chymotrypsin (Bovine pancreas) (Bos taurus, UniProt P00766); experiment: Hydrolase susceptibility: chymotrypsin, HPLC; assay type: in vitro ADME; conditions: 500 μg dipeptide per ml, 150 U, 30° C., pH 7.8, 24 h, FIG. 7
T3 construct: purchased Applichem A4531; host or cells: bovine pancreas
Protocol: as §1

[5] = target: T4, Trypsin (Bovine pancreas) (Bos taurus, UniProt P00760); experiment: Hydrolase susceptibility: trypsin, HPLC; assay type: in vitro ADME; conditions: 500 μg dipeptide per ml, 187.5 U, 25° C., pH 7.6, 24 h, FIG. 7
T4 construct: purchased Sigma T1426-50MG; host or cells: bovine pancreas
T4 sequence (P00760 24-246): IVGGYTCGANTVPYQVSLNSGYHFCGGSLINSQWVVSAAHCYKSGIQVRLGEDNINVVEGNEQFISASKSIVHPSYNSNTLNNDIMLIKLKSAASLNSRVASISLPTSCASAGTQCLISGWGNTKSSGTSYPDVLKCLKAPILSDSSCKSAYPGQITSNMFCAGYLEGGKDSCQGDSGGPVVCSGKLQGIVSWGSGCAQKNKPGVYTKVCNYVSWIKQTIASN
Protocol: as §1

[6] = test system: Endoproteinase ArgC (mouse); experiment: Hydrolase susceptibility: endoproteinase Arg-C, HPLC; assay type: in vitro ADME; conditions: 500 μg dipeptide per ml, 37° C., pH 8.5, 24 h, FIG. 7
Protocol: as §1

[7] = test system: Proteinase N (Bacillus subtilis); experiment: Hydrolase susceptibility: proteinase N, HPLC; assay type: in vitro ADME; conditions: 500 μg dipeptide per ml, 28.4 U, 37° C., pH 1-3, 24 h, FIG. 7
Protocol: as §1

[8] = test system: bovine liver extract (β-aspartyl peptidases); experiment: Cleavage of β-aspartyl dipeptide by bovine liver extract, HPLC; assay type: in vitro ADME; conditions: 10 mM dipeptide, 37° C.
From the text: β-aspartyl dipeptides contain an isoaspartyl peptide bond instead of the α bond common in proteins. It is therefore resistant to cleavage by most common proteases and peptidases. While this resistance is an advantage in the gut and in the bloodstream as it prevents cleavage before reaching the target tissue, it does raise the question as to how the dipeptide is introduced into the metabolism. Specific cytoplasmic isoaspartases (also known as β-aspartyl peptidases) have been found in mammalian tissues that are capable of cleaving a large variety of β-aspartyl dipeptides and related compounds. Specificity is towards the β-aspartyl moiety, with the identity of the moiety bound to this residue being of little importance. The overall reaction can be summarized as:
The substance used for the experiments is a white powder of β-L-aspartyl-L-arginine. The purity is >99% and was determined by HPLC-analysis.
Bovine liver purchased from a butcher was chosen as a model due to ready availability. Liver (50 g fresh weight) was homogenized using a Waring blender in four times its volume of ice-cold phosphate-buffered saline. Insoluble material was removed by centrifugation for 15 min at 9,000×g at 4° C. The supernatant (liver extract) was used immediately as a test solution.
Test setup: An aliquot of 900 μl of liver extract in a 1.5-ml polypropylene tube was placed into a heat block at 37° C. and allowed to heat up for 10 min. Then, a volume of 100 μl of a solution of 100 mM β-aspartyl-arginine phosphate-buffered saline was added to a give a final concentration of 10 mM. Samples of 100 μl were taken at 0, 1, 2, 3, and 4 h after addition of the dipeptide. Immediately after each sample was taken, it was added to a 1.5-ml screw-cap polypropylene tube containing 100 μl of 10% SDS in water and 700 μl of demineralized water. This tube was immediately heated to 100° C. for 10 min to stop any further enzyme activity. The tube was then cooled to room temperature and 100 μl of 10% KCl solution were added. […] The samples were then diluted appropriately with demineralized water and analyzed by HPLC.

rat liver extract = conditions: β-aspartyl-glycine as a substrate, Dorer et al.; cited from earlier work
[9] = equimolar oral doses of free arginine (as arginine aspartate salt), FIG. 3

T2 sequence (P09870 191-526): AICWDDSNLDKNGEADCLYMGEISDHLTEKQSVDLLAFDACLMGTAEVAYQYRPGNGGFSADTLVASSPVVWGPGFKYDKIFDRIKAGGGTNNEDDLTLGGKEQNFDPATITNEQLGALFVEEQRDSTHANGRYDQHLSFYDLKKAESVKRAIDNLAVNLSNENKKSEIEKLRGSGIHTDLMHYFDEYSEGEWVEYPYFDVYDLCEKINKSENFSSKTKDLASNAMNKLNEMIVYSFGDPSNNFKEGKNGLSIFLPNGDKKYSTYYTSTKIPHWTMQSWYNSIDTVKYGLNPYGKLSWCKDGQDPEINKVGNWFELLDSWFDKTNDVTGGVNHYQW
T2 sequence (P09870 51-181): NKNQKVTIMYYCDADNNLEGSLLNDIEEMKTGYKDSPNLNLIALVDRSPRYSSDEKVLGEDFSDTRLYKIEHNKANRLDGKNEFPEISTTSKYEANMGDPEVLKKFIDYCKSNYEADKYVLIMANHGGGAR

N=C(N)NCCC[C@H](N)C(=O)O [arginine, reference compound]
time for blood concentrations to return to baseline [1, 9]: ≤ 4 h | time of fast increase in blood concentration [1, 9]: two | effect of the 5-g dose on blood concentrations versus 2.5 g ([1]; oral free arginine (as arginine aspartate salt), FIG. 3): did not lead to substantially increased blood concentrations | oral amount beyond which arginine levels in blood do not increase [2]: 2.5 g

N=C(N)NCCC[C@H](NC(=O)C[C@H](N)C(=O)O)C(=O)O [β-aspartyl-arginine, β-L-aspartyl-L-arginine]
form in which the orally administered substance is taken up into the bloodstream ([1]; oral): uncleaved dipeptide form | period over which the concentration of the dipeptide in whole blood increased ([1]; oral 2.5 g or 5 g dipeptide in 400 ml water, fasted, three volunteers, FIG. 1): about six | time for which the dipeptide was still detectable in whole blood ([1]; oral 2.5 g or 5 g dipeptide, FIG. 1): 12 h | free arginine in blood after administration of the dipeptide ([1]; oral dipeptide alone): only detected at baseline levels | effect of doubling the oral dose on maximum concentration in whole blood ([1]; oral dose from 2.5 g to 5 g): approximately doubled | hydrolysis by arginase (Arginase (Bovine)): no significant difference to the start concentration | change of dipeptide concentration after clostripain treatment [3]: No significant difference | change of dipeptide concentration after chymotrypsin treatment [4]: No significant difference | change of dipeptide concentration after trypsin treatment [5]: No significant difference | change of dipeptide concentration after endoproteinase Arg-C treatment [6]: No significant difference | change of dipeptide concentration after proteinase N treatment [7]: No significant difference | cleavage by enzymes present in bovine liver ([8]; 0-4 h): is cleaved | hydrolysis activity of liver extract per protein ([8]; bovine liver extract): 0.065 U/mg protein | hydrolysis activity of liver extract ([8]; smaller timescale experiment, FIG. 8): 2.5 mg of dipeptide being hydrolyzed per gram of liver tissue per hour

N[C@@H](CC(=O)NCC(=O)O)C(=O)O [β-aspartyl-glycine]
hydrolysis activity of rat liver extract (rat liver extract): 0.028 U/mg
